Source: patent US20090197910A1, “NOVEL VIRAL REPLICATION INHIBITORS” (KATHOLIEKE UNIVERSITEIT LEUVEN, priority 2006, published 2009)

Experiments:
HCV Subgenomic Replicon = experiment: HCV-Huh-5-2 replicon cell assay (luciferase); format: cell-based, Hepatitis C virus; settings: for EC50: Hepatitis C virus, HCV subgenomic replicon in Huh-5-2 cells, 72 hours, luciferase, read-out: EC50 (concentration required to inhibit luciferase activity in the replicon system by 50%); for SI (selectivity index, ratio of CC50 to EC50): Huh-5-2 cells
Method: (§1) Huh-5-2 cells [a cell line with a persistent HCV replicon I3891uc-ubi-neo/NS3-3′/5.1; replicon with firefly luciferase-ubiquitin-neomycin phosphotransferase fusion protein and EMCV-IRES driven NS3-5B HCV polyprotein] was cultured in RPMI medium (Gibco) supplemented with 10% fetal calf serum, 2 mM L-glutamine (Life Technologies), 1× non-essential amino acids (Life Technologies); 100 IU/ml penicillin and 100 ug/ml streptomycin and 250 ug/ml G418 (Geneticin, Life Technologies). Cells were seeded at a densitiy of 7000 cells per well in 96 well View Plate™ (Packard) in medium containing the same components as described above, except for G418. Cells were allowed to adhere and proliferate for 24 hr. At that time, culture medium was removed and serial dilutions of the test compounds were added in culture medium lacking G418. Interferon alfa 2a (500 IU) was included as a positive control. Plates were further incubated at 37° C. and 5% CO2 for 72 hours. Replication of the HCV replicon in Huh-5 cells results in luciferase activity in the cells. Luciferase activity is measured by adding 50 μl of 1× Glo-lysis buffer (Promega) for 15 minutes followed by 50 ul of the Steady-Glo Luciferase assay reagent (Promega). Luciferase activity is measured with a luminometer and the signal in each individual well is expressed as a percentage of the untreated cultures. Parallel cultures of Huh-5-2 cells, seeded at a density of 7000 cells/well of classical 96-well cell culture plates (Becton-Dickinson) are treated in a similar fashion except that no Glo-lysis buffer or Steady-Glo Luciferase reagent is added. Instead the density of the culture is measured by means of the MTS method (Promega).

[1] = Cytostatic effect on Huh-5-2 cells (MTS method, parallel cultures); format: cell-based; settings: human, read-out: CC50 (concentration required to inhibit the proliferation of exponentially growing Huh-5-2 cells by 50%)
Method: as §1

Row | Compound | EC50 (HCV Subgenomic Replicon) [µM] | SI (selectivity index, ratio of CC50 to EC50) (HCV Subgenomic Replicon) | CC50 at 72 h [1] [µM]
1 | CC(=O)OCC1OC(n2c(SCc3cc4ccccc4oc3=O)nc3cc(C)ccc32)C(OC(C)=O)C(OC(C)=O)C1OC(C)=O (stereo not drawn) [Compound 7b, Acetic acid 3,5-diacetoxy-2-acetoxymethyl-6-[5-methyl-2-(2-oxo-2H-chromen-3-ylmethylsulfanyl)-benzoimidazol-1-yl]-tetrahydro-pyran-4-yl ester] | 8.28 | 5.42 | 44.8
2 | O=c1oc2ccccc2cc1CSc1nc2ccccc2[nH]1 [Compound 4a, 3-(1H-Benzoimidazol-2-ylsulfanylmethyl)-chromen-2-one] | 26.6 | 3.38 | 90.1
3 | O=c1oc2ccc(Br)cc2cc1CSc1nc2cc(F)ccc2[nH]1 [Compound 4i, 6-Bromo-3-(5-fluoro-1H-benzoimidazol-2-ylsulfanylmethyl)-chromen-2-one] | 3.36 | 7.96 | 26.7
4 | CC(=O)OCC1OC(n2c(SCc3cc4cc(Br)ccc4oc3=O)nc3cc(F)ccc32)C(OC(C)=O)C(OC(C)=O)C1OC(C)=O (stereo not drawn) [Compound 7f, Acetic acid 3,5-diacetoxy-2-acetoxymethyl-6-[2-(6-bromo-2-oxo-2H-chromen-3-ylmethylsulfanyl)-5-fluoro-benzoimidazol-1-yl]-tetrahydro-pyran-4-yl ester] | 3.33 | 6.59 | 21.9
5 | Cc1cc2nc(SCc3cc4ccccc4oc3=O)[nH]c2cc1C [Compound 4d, 3-(5,6-Dimethyl-1H-benzoimidazol-2-ylsulfanylmethyl)-chromen-2-one] | 15.2 | 4.37 | 66.6
6 | O=c1oc2ccccc2cc1CSc1nc2cnc(Cl)nc2[nH]1 [Compound 16d, 3-(2-Chloro-9H-purin-8-ylsulfanylmethyl)-chromen-2-one] | 2.03 | 53.69 | 109
7 | O=c1oc2ccccc2cc1CSc1nc2cc(F)ccc2[nH]1 [Compound 4b, 3-(5-Fluoro-1H-benzoimidazol-2-ylsulfanylmethyl)-chromen-2-one] | 11.5 | 3.89 | 44.8
8 | CC(=O)OCC1OC(n2c(SCc3cc4ccccc4oc3=O)nc3ccccc32)C(OC(C)=O)C(OC(C)=O)C1OC(C)=O (stereo not drawn) [Compound 7a, Acetic acid 3,5-diacetoxy-2-acetoxymethyl-6-[2-(2-oxo-2H-chromen-3-ylmethylsulfanyl)-benzoimidazol-1-yl]-tetrahydro-pyran-4-yl ester] | 11.1 | 6.88 | 76.4
9 | Cc1cccc2cc(CSc3nc4ccccc4[nH]3)c(=O)oc12 [Compound 4f, 3-(1H-benzoimidazol-2-ylsulfanylmethyl)-8-methyl-chromen-2-one] | 9.89 | 2.77 | 27.3
10 | O=c1oc2ccc(Br)cc2cc1CSc1nc2cc(Cl)c(Cl)cc2[nH]1 [Compound 4k, 6-Bromo-3-(5,6-dichloro-1H-benzoimidazol-2-ylsulfanylmethyl)-chromen-2-one] | 2.29 | 19.3 | 44.1
11 | O=c1oc2ccccc2cc1CSc1nc2ccccc2o1 [Compound 19a, 3-(Benzooxazol-2-ylsulfanylmethyl)-chromen-2-one] | 11.7 | 3.86 | 45.2
12 | O=C(c1ccccc1)c1ccc2[nH]c(SCc3cc4ccccc4oc3=O)nc2c1 [Compound 4c, 3-(5-Benzoyl-1H-benzoimidazol-2-ylsulfanylmethyl)-chromen-2-one] | 6.61 | 5.58 | 36.8
13 | COc1cccc2cc(CSc3nc4cc(F)ccc4[nH]3)c(=O)oc12 [Compound 4h, 3-(5-Fluoro-1H-benzoimidazol-2-ylsulfanylmethyl)-8-methoxy-chromen-2-one] | 15.9 | 2.63 | 41.9
14 | O=c1oc2ccc(Br)cc2cc1CSc1nc2cccnc2[nH]1 [Compound 16c, 3-(3H-Imidazo[4,5-b]pyridin-2-ylsulfanylmethyl)-6-bromo-chromen-2-one] | 6.8 | 18.82 | 128
15 | CC(=O)OCC1OC(n2c(SCc3cc4cc(Br)ccc4oc3=O)nc3ccccc32)CC(OC(C)=O)C1OC(C)=O (stereo not drawn) [Compound 22c, Acetic acid 3,4-diacetoxy-6-[2-(6-bromo-2-oxo-2H-chromen-3-ylmethylsulfanyl)-benzoimidazol-1-yl]-tetrahydro-pyran-2-ylmethyl ester] | 4.08 | 3.95 | 16.1
16 | CC(=O)OCC1OC(n2c(SCc3cc4ccccc4oc3=O)nc3cc(Cl)c(Cl)cc32)C(OC(C)=O)C(OC(C)=O)C1OC(C)=O (stereo not drawn) [Compound 7d, Acetic acid 3,5-diacetoxy-2-acetoxymethyl-6-[5,6-dichloro-2-(2-oxo-2H-chromen-3-ylmethylsulfanyl)-benzoimidazol-1-yl]-tetrahydro-pyran-4-yl ester] | 3.14 | 6.33 | 19.8
17 | COc1cccc2cc(CSc3nc4cc(Cl)c(Cl)cc4[nH]3)c(=O)oc12 [Compound 4j, 3-(5,6-Dichloro-1H-benzoimidazol-2-ylsulfanylmethyl)-8-methoxy-chromen-2-one] | 3.58 | 3.12 | 11.1
18 | COc1cccc2cc(CSc3nc4cnc(Cl)nc4[nH]3)c(=O)oc12 [Compound 16e, 3-(2-Chloro-9H-purin-8-ylsulfanylmethyl)-8-methoxy-chromen-2-one] | 19.6 | 4.80 | 94
19 | O=c1oc2ccccc2cc1CSc1nc2cc(Cl)c(Cl)cc2[nH]1 [Compound 4e, 3-(5,6-Dichloro-1H-benzoimidazol-2-ylsulfanylmethyl)-chromen-2-one] | 15.5 | 4.80 | 74.4
20 | O=c1oc2ccc(Br)cc2cc1CSc1nc2ccccc2[nH]1 [Compound 4g, 3-(1H-Benzoimidazol-2-ylsulfanylmethyl)-6-bromo-chromen-2-one] | 3.98 | 10.4 | 41.7
21 | O=c1oc2ccc(Br)cc2cc1CSc1nc2ccccc2o1 [Compound 19c, 3-(Benzooxazol-2-ylsulfanylmethyl)-6-bromo-chromen-2-one] | 11.8 | 11.10 | 131
22 | CC(=O)OCC1OC(n2c(SCc3cc4ccccc4oc3=O)nc3cc(F)ccc32)C(OC(C)=O)C(OC(C)=O)C1OC(C)=O (stereo not drawn) [Compound 7c, Acetic acid 3,5-diacetoxy-2-acetoxymethyl-6-[5-fluoro-2-(2-oxo-2H-chromen-3-ylmethylsulfanyl)-benzoimidazol-1-yl]-tetrahydro-pyran-4-yl ester] | 3.88 | 11.1 | 43.1
23 | COc1cccc2cc(CSc3nc4cccnc4[nH]3)c(=O)oc12 [Compound 16b, 3-(3H-Imidazo[4,5-b]pyridin-2-ylsulfanylmethyl)-8-methoxy-chromen-2-one] | 10.9 | 2.78 | 30.3
24 | COc1cccc2cc(CSc3nc4cc(Cl)c(Cl)cc4n3C3OC(COC(C)=O)C(OC(C)=O)C(OC(C)=O)C3OC(C)=O)c(=O)oc12 (stereo not drawn) [Compound 7h, Acetic acid 3,4,5-triacetoxy-6-[5,6-dichloro-2-(8-methoxy-2-oxo-2H-chromen-3-ylmethylsulfanyl)-benzoimidazol-1-yl]-tetrahydro-pyran-2-ylmethyl ester] | 4.35 | 7.62 | 33.1
25 | CC(=O)OCC1OC(n2c(SCc3cc4cc(Br)ccc4oc3=O)nc3ccccc32)C(OC(C)=O)C(OC(C)=O)C1OC(C)=O (stereo not drawn) [Compound 7e, Acetic acid 4,5-diacetoxy-2-acetoxymethyl-6-[2-(6-bromo-2-oxo-2H-chromen-3-ylmethylsulfanyl)-benzoimidazol-1-yl]-tetrahydro-pyran-3-yl ester] | 4.12 | 10.4 | 43.1
